According to patent publication US6544727B1, “Methods and devices for the removal of psoralens from blood products” (Cerus Corporation, priority 1995, dated 2003):
Where “and” joins values, the source holds several entries; their conditions need not be identical. Identical values can stand only once. Like-named read-outs stand apart in the source and are kept apart here.

Tests used:
HIV-1 = conditions: for HIV Log Kill: 1 minute irradiation
Description: As in the R17 assay, small aliquots of the compounds listed in TABLES 10 and 11, below, at the concentrations listed in the table, were added to stock HIV-1 to a total of 0.5 mL. The stock HIV (10^5−10^7 plaque forming units/mL) was in DMEM15% FBS. […] Controls included HIV-1 stock only, HIV-1 plus UVA only, and HIV-1 plus the highest concentration of each psoralen tested, with no UVA. Post irradiation, all samples were store frozen at −70° C. until assayed for infectivity by a microtiter plaque assay. Aliquots for measurement of residual HIV infectivity in the samples treated with a compound of the present invention were withdrawn and cultured.
Residual HIV infectivity was assayed using an MT-2 infectivity assay. […] The assay medium was 85% DMEM (with a high glucose concentration) containing 100 μg of streptomycin, 100 U of penicillin, 50 μg of gentamicin, and 1 μg of amphotericin B per mL, 15% FBS and 2 μg of Polybrene (Sigma Chemical Co., St. Louis, Mo.) per mL. Test and control samples from the inactivation procedure were diluted in 50% assay medium and 50% normal human pooled plasma The samples were serially diluted directly in 96-well plates (Corning Glass Works, Corning, N.Y.). The plates were mixed on an oscillatory shaker for 30 seconds and incubated at 37° C. in a 5% CO2 atmosphere for 1 to 18 hours. […] After an additional 1 hour of incubation at 37° C. in 5% CO2, 0.075 mL of assay medium containing 1.6% SeaPlaque agarose (FMC Bioproducts, Rockland, Me.) and prewarmed to 38.5° C. was added to each well. The plates were kept at 37° C. for a few minutes until several plates had accumulated and then centrifuged in plate carriers at 600×g for 20 minutes in a centrifuge precooled to 10° C. In the centrifuge, cell monolayers formed prior to gelling of the agarose layer. The plates were incubated for 5 days at 37° C. in 5% CO2 and stained by the addition of 0.05 mL of 50 μg/mL propidium iodide (Sigma Chemical Co.) in phosphate-buffered saline (pH 7.4) to each well. After 24 to 48 hours, the red fluorescence-stained microplaques were visualized by placing the plates on an 8,000 μW/cm^2304 nm UV light box (Fotodyne, Inc., New Berlin, Wis.). The plaques were counted at a magnification of x20 to x25 through a stereomicroscope.

[1] = system: Salmonella tester strain TA1537; assay: Ames test, strain TA1537
Description: (§1) In this example the compounds of the present invention are tested for their dark mutagenicity using an Ames assay. The procedures used for the Salmonella mutagenicity test as described in detail by Maron and Ames were followed exactly. Maron, D. M. and B. N. Ames, Mutation Research 113: 173 ( 1983). A brief description for each procedure is given here. The tester strains TA97a, TA98, TA100, TA102, TA1537 and TA1538 were obtained from Dr. Ames. TA97a, TA98, TA1537 and TA1538 are frameshift tester strains. TA100 and TA102 are base-substitution tester strains. Upon receipt each strain was cultured under a variety of conditions to confirm the genotypes specific to the strains.
(§2) The first tests done with the strains were to determine the range of spontaneous reversion for each of the strains. With each mutagenicity experiment the spontaneous reversion of the tester strains to histidine independence was measured and expressed as the number of spontaneous revertants per plate. This served as the background controls.
(§3) For all experiments, the pre-incubation procedure was used. In this procedure one vial of each tester strain was thawed and 20 μL of this culture was added to 6 mL of Oxoid Nutrient Broth #2. This solution was allowed to shake for 10 hours at 37° C. In the pre-incubation procedure, 0.1 mL of this overnight culture was added to each of the required number of sterile test tubes. To half of the tubes 0.5 mL of a 10% S-9 solution containing Aroclor 1254 induced rat liver extract (Molecular Toxicology Inc., Annapolis, Md.), and MgCl2, KCl, glucose-6-phosphate, NADP, and sodium phosphate buffer (Sigma, St. Louis, Mo.) were added. To the other half of the tubes 0.5 mL of 0.2M sodium phospate buffer, pH 7.4, was used in place of the S-9 mixture (the—S9samples). Finally 0.1 mL of the test solution containing either 0, 0.1, 0.5, 1, 5, 10, 50, 100, 250, or 500 μg/mL of the test compound was added. The 0.7 mL mixture was vortexed and then pre-incubated while shaking for 20 minutes at 37° C. After shaking, 2 mL of molten top agar supplemented with histidine and biotin were added to the 0.7 mL mixture and immediately poured onto a minimal glucose agar plate (volume of base agar was 20 mL). The top agar was allowed 30 minutes to solidify and then the plates were inverted and incubated for 44 hours at 37° C. After incubation the number of revertant colonies on each plate were counted. […] (“n” represents the number of replicates performed for each data point.)

p-selectin (GMP140) = assay: GMP-140 (p-selectin) expression on platelets, flow cytometry with CD62; type: cell-based, human; conditions: 100 μM compound, 5 Joules/cm^2, 5 days storage; FIGS. 21C-24C
Description: To measure the effects of the present compounds and methods of decontamination on platelet function using these four indicators, four samples were prepared for each compound tested, two control samples and two containing compound. Three units of human platelets were obtained from the Sacramento Blood Center, Sacramento, Calif. These were each transferred under sterile conditions to 50 ml centrifuge tubes, then aliquots of each unit were transferred into a second set of 50 ml sterile centrifuge tubes. To each centrifuge tube containing platelet concentrate (PC), an aliquot of compound stock was added to reach a final concentration of 100 μM of compound. […] The samples were pipetted gently up and down to mix. Then aliquots (either 3 ml or 8 ml) of each sample was transferred to two sterile Teflon™ Medi-bags™ (American Fluoroseal Co., Silver Springs, Md.) (presently owned by The West Company, Lionville, Pa.). Samples were treated in one of two different sized bags, having either 3 ml or 8 ml capacity. […] For each compound tested, two control samples without compound were prepared by again removing aliquots of platelet concentrate (17 ml if using an 8 ml bag, […] if using a 3 ml bag) from the same one of the first set of 50 ml centrifuge tubes from which the compound sample was drawn, and dividing into Medibags, as before. One of each pair of Medibags containing a compound, and one of each pair of control Medibags, were illuminated for 5 Joules/cm^2 on the device described in Example 1, above. Then all experimental and control Medibags were placed on a platelet shaker for storage for 5 days. The same experiments were repeated several times to obtain more statistically meaningful data, as represented by “n”, the number of data points represented, in the graphs of FIGS. 21-24, discussed below.

mouse reticulocytes = conditions: for PCE/RBC (%): tail vein, once per day for four days, blood on day 5; for bone marrow toxicity and micronucleus formation on dose escalation (in words): increased dose levels in male Balb/c mice
Description: Male Balb/c mice were then injected with 0.1 ml of a compound solution via the tail vein. At least 3 mice were injected per dose level. Saline only was used as a negative control. For a positive control, cyclophosphamide (cycloPP) was administered at a dose of 30 mg/kg. In the experimental group, the injections were repeated once per day for four days. In the positive control group, the sample was administered only once, on day three. On day 5, several microliters of blood were withdrawn from each subject and smeared on a glass slide. Cells were fixed in absolute methanol and stored in a slide rack.
For analysis, cells were stained with acridine orange and visualized under a fluorescence microscope by counting: (i) the number of reticulocytes per 5000 erythrocytes; and (ii) the number of micronucleated reticulocytes per 1000 reticulocytes. Reticulocytes were distinguished by their red fluorescence due to the presence of RNA. Micronuclei were distinguished by their green fluorescence due to the presence of DNA. The percentage of reticulocytes (%PCE) was then calculated. A decrease in the frequency of […] in the percentage of reticulocytes, is an indication of bone marrow toxicity. The percentage of reticulocytes with micronuclei (%PCE with MN) was also calculated. An increase in %PCE with MN is a measure of clastogenicity.
After initial results were determined, the experiment was repeated using increased dose levels, until: (i) Micronucleus formation was seen; or (ii) Bone marrow toxicity was observed; or (iii) The lethal dose was reached; or (iv) A dose of 5 g/kg was administered.

[2] = system: Salmonella tester strain TA1538
Description: as §1, §2, §3

[3] = 16 μM, starting titer approximately 5 logs (Table 10)
[4] = 16 μM, starting titer approximately 5.4 logs (Table 11)
[5] = 32 μM, starting titer approximately 5.4 logs (Table 11)
[6] = 64 μM, starting titer approximately 5.4 logs (Table 11)
[7] = 32 μM, starting titer approximately 5 logs (Table 10)
[8] = 64 μM, starting titer approximately 5 logs (Table 10)

SMILES	HIV Log Kill (HIV-1; [3])	revertant colonies per plate ([1]; TA1537 + S9, 10 μg/plate)	revertant colonies per plate ([1]; TA1537 + S9, 50 μg/plate)	revertant colonies per plate ([1]; TA1537 + S9, 100 μg/plate)	revertant colonies per plate ([1]; TA1537 + S9, 250 μg/plate)	revertant colonies per plate ([1]; TA1537 − S9, 10 μg/plate)	revertant colonies per plate ([1]; TA1537 − S9, 50 μg/plate)	revertant colonies per plate ([1]; TA1537 − S9, 250 μg/plate)	HIV Log Kill (HIV-1; [4])	HIV Log Kill (HIV-1; [5])	HIV Log Kill (HIV-1; [6])	GMP-140 expression, treated sample (PCD) against day 5 untreated control (in words) (p-selectin (GMP140))	revertant colonies per plate ([1]; TA1537 − S9, 100 μg/plate)	bone marrow toxicity and micronucleus formation on dose escalation (in words) (mouse reticulocytes)	HIV Log Kill (HIV-1; [7])	HIV Log Kill (HIV-1; [8])	further results
Cc1oc2c(C)c3oc(=O)cc(C)c3cc2c1CN [AMT, 4′-Aminomethyl-4,5′,8-trimethylpsoralen, reference compound]	1.4 log	30	94	686 and 500	3738	52	2688	434	–	–	–	–	–	–	–	–	revertant colonies per plate ([1]; TA1537 + S9, 0.1 μg/plate): 2; revertant colonies per plate ([1]; TA1537 + S9, 0.5 μg/plate): 2; revertant colonies per plate ([1]; TA1537 + S9, 1 μg/plate): 3; revertant colonies per plate ([1]; TA1537 + S9, 5 μg/plate): 22; revertant colonies per plate ([1]; TA1537 − S9, 0.1 μg/plate): 0; revertant colonies per plate ([1]; TA1537 − S9, 0.5 μg/plate): 3; revertant colonies per plate ([1]; TA1537 − S9, 1 μg/plate): 5; revertant colonies per plate ([1]; TA1537 − S9, 5 μg/plate): 44
Cc1cc(=O)oc2c(C)c3oc(COCCN)c(C)c3cc12 [Compound 18, 5′-(4-amino-2-oxa)butyl-4,4′,8-trimethylpsoralen]	–	8	6	26	–	21	303	–	1.0 log	1.0 log	3.1 log	notable increase above the control	390	the acutely lethal dose was reached before there were any signs of bone marrow toxicity or micronucleus formation	–	–	revertant colonies per plate ([1]; TA1537 + S9, 200 μg/plate): 42; revertant colonies per plate ([1]; TA1537 − S9, 200 μg/plate): 225; PCE/RBC (%) (mouse reticulocytes; 3.75 mg/kg): 3.61 ± 1.14%; PCE/RBC (%) (mouse reticulocytes; 7.5 mg/kg): 3.59 ± 0.33%; PCE/RBC (%) (mouse reticulocytes; 20 mg/kg): 3.48 ± 0.79%
Cc1oc2c(C)c3oc(=O)cc(C)c3cc2c1COCCN [Compound 2, 4′-(4-amino-2-oxa)butyl-4,5′,8-trimethylpsoralen]	1.4 log	5	40	88	744	36	282	176	–	–	–	little or no difference	258	the acutely lethal dose was reached before there were any signs of bone marrow toxicity or micronucleus formation	3.8 log	>4.5 log	HIV inactivation compared with AMT (in words) (HIV-1; cell-free HIV, 64 μM of compound or higher for compounds 2 and 3): significantly more active than AMT; revertant colonies per plate ([1]; TA1537 + S9, 500 μg/plate): 395; revertant colonies per plate ([1]; TA1537 − S9, 500 μg/plate): 114; revertant colonies per plate ([2]; TA1538 + S9, 5 μg/plate): 2; revertant colonies per plate ([2]; TA1538 + S9, 10 μg/plate): 4; revertant colonies per plate ([2]; TA1538 − S9, 5 μg/plate): −8; revertant colonies per plate ([2]; TA1538 − S9, 10 μg/plate): −13
Cc1oc2c(C)c3oc(=O)cc(C)c3cc2c1CNCCCCN [Compound 6, 4′-(6-amino-2-aza)hexyl-4,5′,8-trimethylpsoralen]	2.0 log	–	–	20 and 35	–	–	–	–	2.1 log	3.2 log	>2.8 log	little or no difference	–	the acutely lethal dose was reached before there were any signs of bone marrow toxicity or micronucleus formation	3.1 log	>3.8 log	PCE/RBC (%) (mouse reticulocytes; 30 mg/kg): 3.61 ± 0.12%; PCE/RBC (%) (mouse reticulocytes; 45 mg/kg): 3.79 ± 0.41%; revertant colonies per plate ([2]; TA1538 + S9, 50 μg/plate): 24; revertant colonies per plate ([2]; TA1538 + S9, 100 μg/plate): −2; revertant colonies per plate ([2]; TA1538 + S9, 250 μg/plate): −38; revertant colonies per plate ([2]; TA1538 − S9, 50 μg/plate): 2; revertant colonies per plate ([2]; TA1538 − S9, 100 μg/plate): −18
